Laboratory results reported in patent US6693104B2, “Theobromine with an anti-carcinogenic activity” (Lotte Confectionery Co., Ltd., priority 2001, dated 2004).

Legend:
WB-F344 cells = assay: Scrape Loading/Dye Transfer (SL/DT) assay: suppression of gap junction channel by H2O2; type: cell-based; conditions: 200 μM theobromine, 400 μM H2O2, WB-F344 rat liver epithelial cells, Lucifer Yellow, FIG. 1
Experimental: The effect of theobromine on the suppression of gap junction channel induced by H2O2 was examined according to a known method of Scrape Loading/Dye Transfer (SL/DT) assay (Upham, B. L., Kang, K. S., Cho, H. Y., & Trosko, J. E., Carcinogenesis, 18: 37-42, 1997), as further explained below.
WB-F344 cells were used as a liver cell in order to examine its inhibitory effect on the suppression of gap junction channel in liver cells. The above liver cells were cultured in a MEM-media with 10% FBS, added with 100 IU/mL of penicillin and 100 μg/mL of streptomycin, in an incubator at 37° C. with 5% CO2 (Forma Scientific Co., Marjetta, Ohio, USA). The media compositions used in the above culture were purchased from GIBCO BRL (Grand Island, N.Y., USA). Thus cultured liver cells in media were transferred to each 2 mL petri dish (1×10^5 cells/mL) and cultured for 44 hr. Then the above culturing media were replaced with fresh media with various concentrations of theobromine while the control group was also replaced with fresh media only. Four hours after that, the media were treated theobromine with various concentrations 400 μM by H2O2 together while the control group was replaced with fresh medial. […]

HepG2 = assay: 3H thymidine uptake assay, liver cancer cells; type: cell-based; conditions: HepG2, various concentrations, 72 hr, FIG. 3
Experimental: The inhibitory effect of theobromine on the proliferation of liver cancer cells was examined by using ^3H thymidine uptake assay (Marshall, E. S. et al. European J. Cancer, 30A: 1370-1376, 1994). HepG2 was used as liver cancer cells. The HepG2 liver cancer cells were cultured in RPMI-1640 media with 10% FBS, 100 IU/mL of penicillin and 100 μg/mL of streptomycin, in a 37° C. incubator with 5% CO2 (Forma Scientific Co., Marjetta, Ohio, USA). The media were purchased from GIBCO BRL (Grand Island, N.Y., USA). Thus cultured HepG2 liver cancer cells were transferred to 96 well plates, each of which contains 2×10^4 cells and were added with various concentrations of theobromine obtained from the reference examples 1-3 and were cultured for 72 hr. Six hours prior to recovery of the above cells, each well was added with 1 μCi of ^3H-Thymidine (Sigma, St. Louis, Mo., USA). After completion of the culture, the cells were recovered into a glass fiber filter (Brandel Inc., Gaithersburg, Mass., USA) by using a recovery instrument (Cambridge Scientific Inc., Cambridge, Mass., USA). The incorporation of ^3H-thymidine of recovered cells after combining with 3 mL of scintillation cocktail solution (Wallac, Turku, Finland) was examined in a liquid scintillation counter (Wallac, Turku, Finland). The whole process was repeated three times according to the above method.

SNU1 = assay: 3H thymidine uptake assay, gastric cancer cells; type: cell-based; conditions: SNU1, various concentrations, FIG. 4
SNUC2A = assay: 3H thymidine uptake assay, colon cancer cells; type: cell-based; conditions: various concentrations, FIG. 5
[1] = type: in vivo; conditions: 0.5 g/kg, in DMSO diluted in water, observed for 7 days
Experimental: The toxicity of theobromine of the present invention was performed as follows.

Cn1cnc2c1c(=O)[nH]c(=O)n2C [theobromine]
inhibition of the suppression of gap junction channel by H2O2 (WB-F344 cells): completely inhibit the suppression of gap junction channel
inhibition rate of DNA synthesis of liver cancer cells (HepG2): increased in a dose-dependent manner
inhibition rate of DNA synthesis of gastric cancer cells (SNU1): increased in a dose-dependent manner
inhibition rate of DNA synthesis of colon cancer cells (SNUC2A): increased in a dose-dependent manner
survival [1]: all mice survived
